From patent publication US8981094B2, “Piperidine/piperazine derivatives” (Janssen Pharmaceutica N.V., priority 2007, dated 2015)

How the values were obtained:
human DGAT1 = biological target: T1, human DGAT1 (Homo sapiens, UniProt O75907); assay: Inhibition of DGAT1 activity, FlashPlate assay with DGAT1 membrane preparations and substrate micelles; type: biochemical; details: pIC50 = -logIC50, IC50 values expressed in M
T1 construct: FLAG (N); made in house; host or cells: SF9 insect cells (pFastBac baculovirus); total cell membranes
T1 sequence (O75907 1-488): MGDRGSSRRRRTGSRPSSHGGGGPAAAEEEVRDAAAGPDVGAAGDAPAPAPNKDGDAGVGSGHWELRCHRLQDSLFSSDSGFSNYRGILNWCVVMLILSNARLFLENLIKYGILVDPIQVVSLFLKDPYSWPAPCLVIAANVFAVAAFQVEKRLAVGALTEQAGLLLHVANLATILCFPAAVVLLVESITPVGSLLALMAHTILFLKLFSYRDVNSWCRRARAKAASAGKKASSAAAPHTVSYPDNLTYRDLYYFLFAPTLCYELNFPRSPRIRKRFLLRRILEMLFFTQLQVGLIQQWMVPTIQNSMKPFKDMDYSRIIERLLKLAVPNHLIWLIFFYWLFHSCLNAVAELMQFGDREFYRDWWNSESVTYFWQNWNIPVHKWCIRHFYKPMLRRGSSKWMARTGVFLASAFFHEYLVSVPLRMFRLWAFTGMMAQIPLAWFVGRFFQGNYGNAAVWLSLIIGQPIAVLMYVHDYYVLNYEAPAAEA
Procedure, shortened: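 FLAG-tagged human DGAT1 membranes (expressed in Sf9 cells) were incubated 120 min at 37° C. in 50 mM Tris-HCl pH 7.4 with 150 mM MgCl2, 1 mM EDTA, 0.2% BSA, 50 μM DAG micelles (PC/PS) and 8.4 μM [^3H]-oleoylCoA. The reaction was stopped with N-ethylmaleimide and read as FlashPlate radioluminescence. Responses were normalized to enzyme/no-enzyme controls to fit dose-response curves.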

SMILES | IC50 (human DGAT1) | melting point
CC(O)c1cc(Cl)c(NC(=O)N2CCN(c3ccc(NC(=O)CCCc4ccccc4)cc3)CC2)c(Cl)c1 (centres unmarked) [Compound 29] | 3.98 nM | 187.3 °C
COc1cc(Cl)c(NC(=O)N2CCN(c3ccc(NC(=O)CNc4ccc(C)cc4C)cc3)CC2)c(Cl)c1 [Compound 31] | 4.47 nM | 175 to 176 °C
COc1ccc(CNCCC(=O)Nc2ccc(N3CCN(C(=O)Nc4c(Cl)cccc4Cl)CC3)cc2)cc1 [Compound 32] | 347 nM | 188 to 189 °C
O=C(CNCc1ccc(F)cc1)Nc1ccc(N2CCN(C(=O)Nc3c(Cl)cccc3Cl)CC2)cc1 [Compound 35] | 240 nM | 169.9 °C
O=C(CNc1ccc(F)cc1)Nc1ccc(N2CCN(C(=O)Nc3c(Cl)cccc3Cl)CC2)cc1 [Compound 36] | 87.1 nM | 254.2 °C
CC1CN(CC(=O)Nc2ccc(N3CCN(C(=O)Nc4c(Cl)cccc4Cl)CC3)cc2)CC(C)O1 (centres unmarked) [Compound 37] | 129 nM | 237.1 °C
Cc1cc(C)cc(N2CCN(CC(=O)Nc3ccc(N4CCN(C(=O)Nc5c(Cl)cccc5Cl)CC4)cc3)CC2)c1 [Compound 41] | 77.6 nM | 186.1 °C
CN(C(=O)CCCc1ccccc1)c1ccc(N2CCN(C(=O)Nc3c(Cl)cccc3Cl)CC2)cc1 [Compound 42] | 6920 nM | 175.2 °C
COCCOCC(=O)Nc1ccc(N2CCN(C(=O)Nc3c(Cl)cccc3Cl)CC2)cc1 [Compound 45] | 2340 nM | 178.7 °C
O=C(CCCc1ccccc1)Nc1ccc(N2CCN(C(=O)Nc3c(Cl)cc(Br)c4c3CCO4)CC2)cc1 [Compound 46] | 331 nM | 223 °C
O=C(Nc1ccc(N2CCN(C(=O)Nc3c(Cl)cccc3Cl)CC2)cc1)C(O)CCc1ccccc1 (centres unmarked) [Compound 48] | 148 nM | 253.4 °C
O=C(CCCc1ccccc1)Nc1ccc(N2CCN(C(=O)Nc3c(F)cc(Br)cc3F)CC2)cc1 [Compound 49] | 120 nM | 207.9 °C
CCOC(=O)CC(=O)Nc1ccc(N2CCN(C(=O)Nc3c(Cl)cccc3Cl)CC2)cc1 [Compound 50] | 95.5 nM | 219.9 °C
C=CCN(CC(=O)Nc1ccc(N2CCN(C(=O)Nc3c(Cl)cccc3Cl)CC2)cc1)Cc1ccc(F)cc1 [Compound 51] | 18.2 nM | 177.8 °C
CC(NCCCN(C)C)c1cc(Cl)c(NC(=O)N2CCN(c3ccc(NC(=O)CCCc4ccccc4)cc3)CC2)c(Cl)c1 (centres unmarked) [Compound 54] | 23.4 nM | 125.4 °C
CC(c1cc(Cl)c(NC(=O)N2CCN(c3ccc(NC(=O)CCCc4ccccc4)cc3)CC2)c(Cl)c1)N1CCCCC1 (centres unmarked) [Compound 56] | 16.2 nM | 218 °C
Cc1cc(Br)cc(C)c1NC(=O)N1CCN(c2ccc(NC(=O)CCCc3ccccc3)cc2)CC1 [Compound 61] | 38 nM | 241.7 °C
O=C(CCCc1ccccc1)Nc1ccc(N2CCN(C(=O)Nc3c(F)cc(Br)cc3Br)CC2)cc1 [Compound 63] | 30.9 nM | 218.6 °C
Cc1ccc(NC(=O)N2CCN(c3ccc(NC(=O)CCCc4ccccc4)cc3)CC2)c(C)c1 [Compound 66] | 26.9 nM | 181.7 °C
Cc1cc(C)c(NC(=O)N2CCN(c3ccc(NC(=O)CCCc4ccccc4)cc3)CC2)c(C)c1 [Compound 68] | 12.3 nM | 223 °C
COc1ccccc1CNC(=O)N1CCN(c2ccc(NC(=O)CCCc3ccccc3)cc2)CC1 [Compound 71] | 1070 nM | 183.1 °C
CCCc1ccccc1NC(=O)N1CCN(c2ccc(NC(=O)CCCc3ccccc3)cc2)CC1 [Compound 77] | 1660 nM | 200.2 °C
CSc1ccccc1NC(=O)N1CCN(c2ccc(NC(=O)CCCc3ccccc3)cc2)CC1 [Compound 79] | 1450 nM | 127.1 °C
CC(C)(C)CC(C)(C)NC(=O)N1CCN(c2ccc(NC(=O)CCCc3ccccc3)cc2)CC1 [Compound 85] | 1950 nM | 202.3 °C
CCC(C)c1ccccc1NC(=O)N1CCN(c2ccc(NC(=O)CCCc3ccccc3)cc2)CC1 (centres unmarked) [Compound 86] | 1700 nM | 207.8 °C
O=C(CCCc1ccccc1)Nc1ccc(N2CCN(C(=O)Nc3c(F)c(F)c(F)c(F)c3F)CC2)cc1 [Compound 87] | 3310 nM | 181.2 °C
CC(C)c1ccccc1NC(=O)N1CCN(c2ccc(NC(=O)CCCc3ccccc3)cc2)CC1 [Compound 90] | 589 nM | 214.2 °C
CCOC(=O)c1ccccc1NC(=O)N1CCN(c2ccc(NC(=O)CCCc3ccccc3)cc2)CC1 [Compound 91] | 5500 nM | 194.7 °C
COC(=O)c1ccccc1NC(=O)N1CCN(c2ccc(NC(=O)CCCc3ccccc3)cc2)CC1 [Compound 92] | 7410 nM | 165.4 °C

The remaining lines, values ahead:

IC50 (human DGAT1) | melting point | SMILES
145 nM | 142.1 °C | O=C(CCCc1ccccc1)Nc1ccc(N2CCN(C(=O)Nc3ccccc3Cl)CC2)cc1 [Compound 34]
5.37 nM | 114 to 124 °C | O=C(CCCc1ccccc1)Nc1ccc(N2CCN(C(=O)Nc3c(Cl)cccc3Cl)CC2)cc1 [Compound 58]
12.9 nM | 234.9 °C | O=C(CCCc1ccccc1)Nc1ccc(N2CCN(C(=O)Nc3c(Cl)cc(Cl)cc3Cl)CC2)cc1 [Compound 59]
12.6 nM | 240.7 °C | Cc1cccc(Cl)c1NC(=O)N1CCN(c2ccc(NC(=O)CCCc3ccccc3)cc2)CC1 [Compound 60]
16.2 nM | 254 °C | O=C(CCCc1ccccc1)Nc1ccc(N2CCN(C(=O)Nc3c(Cl)cccc3C(F)(F)F)CC2)cc1 [Compound 62]
7.08 nM | 210.6 °C | Cc1cc(C)c(NC(=O)N2CCN(c3ccc(NC(=O)CCCc4ccccc4)cc3)CC2)c(Cl)c1 [Compound 64]
60.3 nM | 187 °C | O=C(CCCc1ccccc1)Nc1ccc(N2CCN(C(=O)Nc3c(F)cccc3F)CC2)cc1 [Compound 67]
457 nM | 141.2 °C | O=C(CCCc1ccccc1)Nc1ccc(N2CCN(C(=O)Nc3ccc(F)cc3F)CC2)cc1 [Compound 73]
126 nM | 153.3 °C | O=C(CCCc1ccccc1)Nc1ccc(N2CCN(C(=O)Nc3ccccc3I)CC2)cc1 [Compound 78]
3310 nM | 170.3 °C | O=C(CCCc1ccccc1)Nc1ccc(N2CCN(C(=O)Nc3cc(C(F)(F)F)ccc3Cl)CC2)cc1 [Compound 81]
75.9 nM | 173.6 °C | O=C(CCCc1ccccc1)Nc1ccc(N2CCN(C(=O)Nc3c(F)cc(F)cc3F)CC2)cc1 [Compound 82]
1480 nM | 162.2 °C | O=C(CCCc1ccccc1)Nc1ccc(N2CCN(C(=O)Nc3ccccc3OC(F)(F)F)CC2)cc1 [Compound 84]
479 nM | 225.1 °C | O=C(CCCc1ccccc1)Nc1ccc(N2CCN(C(=O)Nc3c(Cl)c(Cl)cc(Cl)c3Cl)CC2)cc1 [Compound 88]
2190 nM | 227.2 °C | CC(C)(C)c1ccccc1NC(=O)N1CCN(c2ccc(NC(=O)CCCc3ccccc3)cc2)CC1 [Compound 89]
